Among the data in patent US9771333B2, “Quinazoline derivatives as TAM family kinase inhibitors” (SIGNALCHEM LIFESCIENCES CORP., priority 2013, dated 2017) are IC50 values, retold here.

SMILES strings stand for the structures.

Common to all, as to type: biochemical
One assay deals with T1, human Tyro3 (Homo sapiens, UniProt Q06418).
T1 construct: GST (N); made in house; host or cells: Sf9 insect cells (baculovirus)
T1 sequence (Q06418 455-890 limits assumed): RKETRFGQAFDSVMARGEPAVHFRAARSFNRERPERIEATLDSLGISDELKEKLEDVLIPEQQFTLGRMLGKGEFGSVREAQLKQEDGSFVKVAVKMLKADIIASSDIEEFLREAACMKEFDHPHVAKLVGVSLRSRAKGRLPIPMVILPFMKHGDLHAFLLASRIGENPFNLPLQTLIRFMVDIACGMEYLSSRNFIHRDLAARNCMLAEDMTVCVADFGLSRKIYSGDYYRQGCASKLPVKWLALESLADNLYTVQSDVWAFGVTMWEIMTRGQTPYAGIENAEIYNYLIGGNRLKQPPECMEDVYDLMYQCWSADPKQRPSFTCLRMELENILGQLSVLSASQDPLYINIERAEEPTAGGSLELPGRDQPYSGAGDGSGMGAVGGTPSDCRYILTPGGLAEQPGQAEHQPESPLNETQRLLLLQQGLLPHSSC
The assay is described as follows: Kinase enzymatic activity assay (33P-radiolabeled phosphate transfer), Tyro3. As to conditions: recombinant human Tyro3 (455-end), poly(4:1 glu:tyr) substrate, 30 minutes. The text has this: (§1) The identification of compounds of the invention as Tyro3, Axl or Mer inhibitors was readily accomplished using the recombinant human Tyro3, Axl and Mer proteins and employing the ^33P-radiolabeled phosphate transfer assay for which the procedure is known to someone skilled in the art or as described in Example 9.
(§2) Recombinant human Tyro3 (455-end, the gene accession number NM_006293), human Axl (473-end, the gene accession number NM_021913) and human Mer (578-872, the gene accession number NM_006343) were independently expressed by baculovirus in Sf9 insect cells using an N-terminal GST tag. The recombinant proteins were stored at −70° C. in a medium containing 50 mM Tris-HCl, pH 7.5, 150 mM NaCl, 10 mM glutathione, 0.1 mM EDTA, 0.25 mM DTT, 0.1 mM PMSF and 25% glycerol. The recombinant proteins were aliquoted into smaller quantities after centrifugation to avoid repeated handling and multiple freeze/thaw cycles for the most favorable performance.
(§3) Kinase Assay Buffer: This buffer solution consisted of the following components: 25 mM MOPS, pH 7.2, 12.5 mM β-glycerol-phosphate, 25 mM MgCl2, 5 mM EGTA, 2 mM EDTA and DTT 0.25 mM which was added prior to use.
(§4) Kinase Dilution Buffer: Kinase Assay Buffer was diluted at a 1:4 ratio (5× dilution) with distilled water.
(§5) [^33P]-ATP assay cocktail: In a designated radioactive working area, a 250 μM [^33P]-ATP assay cocktail was prepared by the addition of the following components: 150 μL of 10 mM ATP stock solution, 100 μL [^33P]-ATP (1 mci/100 μL), and 5.75 mL of kinase assay buffer. This solution was stored in 1 mL aliquots at −20° C.
(§6) ATP stock solution (10 mM): The ATP stock solution was prepared by dissolving 55 mg of ATP in 10 mL of kinase assay buffer. It was stored in 200 μL aliquots at −20° C.
(§7) Active Kinase Stock Solution: The active recombinant kinase protein (0.1 μg/μL) was diluted with Kinase Dilution Buffer and the activity was assayed using a serial dilution method. The specific activity is expressed in nmoL/min/mg.
(§8) Substrates: poly(4:1 glu:tyr) is the substrate used for each kinase Tyro3, Axl and Mer: The peptide substrate was dissolved in water to give the final concentration of 1 mg/mL.
(§9) Test compound solution: Test compound was dissolved in DMSO to obtain a 10 mM solution. The assay solution was prepared by adding 5 μL of this solution to […] of 10% DMSO/water to obtain the final concentration of 50 μM.
(§10) The enzymatic activity of all three kinases was determined as follows. Using a 96-well plate, the wells were divided into three categories: Blank wells, […] and Test wells. In Test wells, 5 μL of the test compound solution and 5 μL of the substrate solution were added. In Control wells, 5 μL of 10% DMSO/water and 5 μL of the substrate solution were added. In Blank wells, 10 μL of 10% DMSO/water was added. To each well was added 10 μL of Active Kinase Stock Solution to make up the volume in each well to 20 μL. All test samples, controls and blanks were run in duplicate. The reaction was initiated by the addition of 5 μL of [^33P]-ATP assay cocktail, bringing the final volume up to 25 μL in every well. The mixture was incubated at room temperature for 30 minutes. The reaction was terminated by transferring 10 μL of the reaction mixture into a Millipore MultiScreen filter plate (cat. number MSPHN6B50). The filter plate was washed in a 1% phosphoric acid solution with constant gentle shaking for 15 minutes and this step was repeated once. After the plate was dried in air, scintillation fluid was added to each well and the radioactivity in each well in CPM was counted by a Microbeta TriLux. The corrected CPM in each test well was determined by subtracting the average value of Blank well values. Percentage of inhibition of the kinase enzymatic activity by the test compound was determined using the following formula: […]
(§11) The IC50 values were determined in a similar way following a serial dilution of the test compound. […]

Another assay addresses T2, human Axl (Homo sapiens, UniProt P30530).
T2 construct: GST (N); made in house; host or cells: Sf9 insect cells (baculovirus)
T2 sequence (P30530 473-894 limits assumed): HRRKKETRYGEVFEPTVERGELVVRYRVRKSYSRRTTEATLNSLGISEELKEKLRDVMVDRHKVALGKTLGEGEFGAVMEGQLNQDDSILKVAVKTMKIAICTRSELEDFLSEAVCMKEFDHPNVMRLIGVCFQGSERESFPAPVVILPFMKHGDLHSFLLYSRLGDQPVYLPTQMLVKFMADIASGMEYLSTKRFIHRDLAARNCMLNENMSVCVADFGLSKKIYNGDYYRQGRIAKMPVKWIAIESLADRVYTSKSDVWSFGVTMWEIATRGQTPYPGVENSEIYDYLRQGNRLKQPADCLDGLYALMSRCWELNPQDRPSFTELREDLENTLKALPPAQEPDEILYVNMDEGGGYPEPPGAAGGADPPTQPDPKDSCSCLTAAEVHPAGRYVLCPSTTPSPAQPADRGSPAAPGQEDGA
The assay is described as follows: Kinase enzymatic activity assay (33P-radiolabeled phosphate transfer), Axl. As to conditions: recombinant human Axl (473-end), poly(4:1 glu:tyr) substrate, 30 minutes.
Excerpt: as §1, §2, §3, §4, §5, §6, §7, §8, §9, §10, §11

Another assay deals with T3, human Mer (Homo sapiens, UniProt Q12866).
T3 construct: GST (N); made in house; host or cells: Sf9 insect cells (baculovirus)
T3 sequence (Q12866 578-872): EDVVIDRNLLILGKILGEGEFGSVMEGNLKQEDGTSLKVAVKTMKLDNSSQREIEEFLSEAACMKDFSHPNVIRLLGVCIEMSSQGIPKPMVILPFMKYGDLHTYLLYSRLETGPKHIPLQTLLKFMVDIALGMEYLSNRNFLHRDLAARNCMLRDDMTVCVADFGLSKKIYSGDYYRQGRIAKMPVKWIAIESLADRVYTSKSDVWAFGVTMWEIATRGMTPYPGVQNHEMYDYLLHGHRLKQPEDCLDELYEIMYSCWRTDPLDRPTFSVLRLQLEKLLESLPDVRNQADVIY
As to the kind of experiment: Kinase enzymatic activity assay (33P-radiolabeled phosphate transfer), Mer. As to conditions: recombinant human Mer (578-872), poly(4:1 glu:tyr) substrate, 30 minutes.
Excerpt: as §1, §2, §3, §4, §5, §6, §7, §8, §9, §10, §11

For `COc1cc(OCCCN2CCOCC2)cc2ncnc(Oc3cccc(CC(=O)NCc4ccccc4)c3)c12` [Example 2.29, N-benzyl-2-(3-((5-methoxy-7-(3-morpholinopropoxy)quinazolin-4-yl)oxy)phenyl)acetamide], the IC50 is 1000 to 10000 nM on human Tyro3, > 10000 nM at human Axl and > 10000 nM at human Mer.

On to `FC(F)(F)c1csc(Nc2ncnc3cc(OCCN4CCOCC4)cc(OC4CCOCC4)c23)n1` [Example 2.53, N-(7-(2-morpholinoethoxy)-5-((tetrahydro-2H-pyran-4-yl)oxy)quinazolin-4-yl)-4-(trifluoromethyl)thiazol-2-amine], for which the IC50 on human Tyro3 is > 10000 nM; on human Axl, 1000 to 10000 nM; on human Mer it was > 10000 nM.

Regarding `CN1CCC(COc2cc(OC3CCOCC3)c3c(Nc4ccon4)ncnc3c2)CC1` [Example 2.61, N-(7-((1-methylpiperidin-4-yl)methoxy)-5-((tetrahydro-2H-pyran-4-yl)oxy)-quinazolin-4-yl)isoxazol-3-amine], the IC50 is 1000 to 10000 nM on human Tyro3, < 500 nM on human Axl and < 500 nM at human Mer.

`COCCN(C)CCOc1cc(OC2CCOCC2)c2c(Oc3ccc(F)cc3Cl)ncnc2c1` [Example 2.3, 2-((4-(2-chloro-4-fluorophenoxy)-5-((tetrahydro-2H-pyran-4-yl)oxy)quinazolin-7-yl)oxy)-N-(2-methoxyethyl)-N-methylethanamine]: the results for the IC50 on human Tyro3, on human Axl and on human Mer were 500 to 1000 nM, > 10000 nM and 1000 to 10000 nM, respectively.

With `Cc1nnc(Sc2ncnc3cc(OCC4CCN(C)CC4)cc(OC4CCOCC4)c23)s1` [Example 2.48, 2-methyl-5-((7-((1-methylpiperidin-4-yl)methoxy)-5-((tetrahydro-2H-pyran-4-yl)oxy)quinazolin-4-yl)thio)-1,3,4-thiadiazole], the IC50 is > 10000 nM on human Tyro3, 500 to 1000 nM at human Axl and > 10000 nM on human Mer.

`COC(=O)c1cccc(Oc2ncnc3cc(OCCN4CCN(C)CC4)cc(OC4CCOCC4)c23)c1` [Example 2.30, methyl 3-((7-(2-(4-methylpiperazin-1-yl)ethoxy)-5-((tetrahydro-2H-pyran-4-yl)oxy)quinazolin-4-yl)oxy)benzoate]: the IC50 was 1000 to 10000 nM at human Tyro3, 1000 to 10000 nM at human Axl and > 10000 nM at human Mer.

In the case of `COCCOc1cc(OCCN2CCN(C)CC2)cc2ncnc(Sc3ccc(F)c(Br)c3)c12` [Example 4.5, 4-((3-bromo-4-fluorophenyl)thio)-5-(2-methoxyethoxy)-7-(2-(4-methylpiperazin-1-yl)ethoxy)quinazoline], the IC50 on human Tyro3 is < 500 nM; on human Axl, 1000 to 10000 nM; on human Mer, > 10000 nM.

With `c1nc(Nc2nncs2)c2c(OC3CCOCC3)cc(OCCCN3CCOCC3)cc2n1` [Example 2.19, N-(7-(3-morpholinopropoxy)-5-((tetrahydro-2H-pyran-4-yl)oxy)quinazolin-4-yl)-1,3,4-thiadiazol-2-amine], the IC50 was 1000 to 10000 nM on human Tyro3, < 500 nM on human Axl and 1000 to 10000 nM at human Mer.

Regarding `Fc1ccc(Oc2ncnc3cc(OCCN4CCCCC4)cc(OC4CCOCC4)c23)c(Cl)c1` [Example 1, 4-(2-chloro-4-fluorophenoxy)-7-(2-(piperidin-1-yl)ethoxy)-5-((tetrahydro-2H-pyran-4-yl)oxy)quinazoline], the IC50 on human Tyro3 was < 500 nM; on human Axl, 1000 to 10000 nM; on human Mer it was < 500 nM.

Consider `Fc1ccc(Oc2ncnc3cc(OCCCN4CCOCC4)cc(N4CCOCC4)c23)c(Cl)c1` [Example 4.8, 4-(3-((4-(2-chloro-4-fluorophenoxy)-5-morpholinoquinazolin-7-yl)oxy)propyl)morpholine], for which the values for the IC50 on human Tyro3, on human Axl and at human Mer were 1000 to 10000 nM, > 10000 nM and 1000 to 10000 nM, respectively.

Turning to `COc1cc(N2CCOCC2)cc2ncnc(Nc3nc(C(F)(F)F)cs3)c12` [Example 2.24, N-(5-methoxy-7-morpholinoquinazolin-4-yl)-4-(trifluoromethyl)thiazol-2-amine], the half-inhibitory concentration (IC50) was > 10000 nM at human Tyro3, 1000 to 10000 nM at human Axl and > 10000 nM at human Mer.

With `CN1CCC(COc2cc(OC3CCOCC3)c3c(Oc4cccc(C(F)(F)F)c4)ncnc3c2)CC1` [Example 4.10, 7-((1-methylpiperidin-4-yl)methoxy)-5-((tetrahydro-2H-pyran-4-yl)oxy)-4-(3-(trifluoromethyl)phenoxy)quinazoline], the IC50 on human Tyro3 was < 500 nM; at human Axl, 500 to 1000 nM; on human Mer it was 500 to 1000 nM.

Take `CN1CCN(c2cc(OCCCN3CCOCC3)cc3ncnc(Oc4ccc(F)cc4Cl)c23)CC1` [Example 4.9, 4-(3-((4-(2-chloro-4-fluorophenoxy)-5-(4-methylpiperazin-1-yl)quinazolin-7-yl)oxy)propyl)morpholine]: the results for the 50% inhibitory concentration (IC50) on human Tyro3, on human Axl and at human Mer were < 500 nM, > 10000 nM and 1000 to 10000 nM, respectively.

In the case of `COCCOc1cc(OCCN2CCN(C)CC2)cc2ncnc(Sc3ccc(Cl)cc3)c12` [Example 4, 4-((4-chlorophenyl)thio)-5-(2-methoxyethoxy)-7-(2-(4-methylpiperazin-1-yl)ethoxy)quinazoline], the results for the IC50 on human Tyro3, at human Axl and at human Mer were 1000 to 10000 nM, > 10000 nM and > 10000 nM, respectively.
